Measurements reported in paper PMC8296573, “Synthesis and Biological Evaluation of Fingolimod Derivatives as Antibacterial Agents” (ACS Omega, 2021).
Values after ≈ are worked out from the molar mass of the structure shown. Where two headings read alike, the source gives them in different places.

What was measured:
A. baumannii NCTC 13423 = test: Antibacterial activity, pre-exposure; format: cell-based, Acinetobacter baumannii; details: for Average inhibition %, biofilms viability / Average inhibition %, planktonic cells viability / inhibition at 10 µM / inhibition at 15 µM / inhibition at 25 µM / inhibition at 50 µM: A. baumannii NCTC 13423, pre-exposure, ± SD; for inhibition at 10 µM / inhibition at 15 µM / inhibition at 25 µM / inhibition at 50 µM / MIC: Acinetobacter baumannii, NCTC13423
In short: (§1)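 Compounds in DMSO were plated before bacteria were added (pre-exposure) and incubated 18 h aerobically at 37 °C with shaking. Planktonic cells were read by OD and resazurin fluorescence (20 μM final; ex 560/em 590 nm). Biofilms were read by resazurin, then crystal violet (A595) for total biomass.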

P. aeruginosa ATCC 9027 = test: Antibacterial activity, pre-exposure; format: cell-based, Pseudomonas aeruginosa; details: for Average inhibition %, biofilms viability / Average inhibition %, planktonic cells viability / inhibition at 50 µM / inhibition at 100 µM / inhibition at 150 µM / inhibition at 200 µM: P. aeruginosa ATCC 9027, pre-exposure, ± SD; for inhibition at 50 µM / inhibition at 100 µM / inhibition at 150 µM / inhibition at 200 µM: Pseudomonas aeruginosa, ATCC9027
In short: as §1

S. aureus ATCC 25923 [1] = test: Antibacterial activity, pre-exposure (planktonic cells and biofilm formation); format: cell-based, Staphylococcus aureus; details: for MIC / inhibition at 5 µM / inhibition at 10 µM / inhibition at 15 µM / inhibition at 25 µM: Staphylococcus aureus, ATCC25923; for inhibition at 5 µM / inhibition at 10 µM / inhibition at 15 µM / inhibition at 25 µM / Average inhibition %, biofilms viability / Average inhibition %, planktonic cells viability: pre-exposure, ± SD
In short: as §1

S. aureus ATCC 25923 [2] = test: Antibacterial activity, post-exposure on preformed 18-h-old biofilms; format: cell-based, Staphylococcus aureus; details: ± SD; for inhibition at 25 µM / inhibition at 50 µM / inhibition at 100 µM / inhibition at 200 µM: Staphylococcus aureus; for inhibition at 25 µM: ATCC25923, 25 µM; for inhibition at 50 µM: ATCC25923, 50 µM; for inhibition at 100 µM: ATCC25923, 100 µM; for inhibition at 200 µM: ATCC25923, 200 µM
In short: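 Biofilms grown 18 h without compound, medium then replaced and compound added for a further 24 h. Planktonic OD and resazurin (20 μM final) fluorescence (ex 560/em 590 nm) read; washed biofilms stained with 20 μM resazurin 30 min at 37 °C, then ethanol-fixed and crystal violet-stained, absorbance 595 nm.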

[3] = 10 µM, read-out: Average inhibition %, biofilms biomass
[4] = 10 µM, read-out: Average inhibition %, planktonic cells turbidity
[5] = 15 µM, read-out: Average inhibition %, biofilms biomass
[6] = 15 µM, read-out: Average inhibition %, planktonic cells turbidity
[7] = 25 µM, read-out: Average inhibition %, biofilms biomass
[8] = 25 µM, read-out: Average inhibition %, planktonic cells turbidity
[9] = 50 µM, read-out: Average inhibition %, biofilms biomass
[10] = 50 µM, read-out: Average inhibition %, planktonic cells turbidity
[11] = read-out: Average inhibition %, biofilms biomass
[12] = read-out: Average inhibition %, planktonic cells turbidity

With `CCCCCCCCc1ccc2nc(CCC(N)(CO)CO)ccc2c1` [Compound 80, 2-Amino-2-[2-(6-octylquinolin-2-yl)ethyl]propane-1,3-diol] the “Average inhibition %, biofilms viability” value (A. baumannii NCTC 13423; 10 µM) was 0 ± 0%, the “Average inhibition %, planktonic cells viability” value (A. baumannii NCTC 13423; 10 µM) was 7.2 ± 5.2% and the “Average inhibition %, biofilms viability” value (A. baumannii NCTC 13423; 15 µM) was 71.9 ± 26.2%. For the same compound, the “Average inhibition %, planktonic cells viability” value (A. baumannii NCTC 13423; 15 µM) was 98.9 ± 0.3%, the “Average inhibition %, biofilms viability” value (A. baumannii NCTC 13423; 25 µM) was 101.6 ± 1.6% and the “Average inhibition %, planktonic cells viability” value (A. baumannii NCTC 13423; 25 µM) was 99.6 ± 0.1%. For the same compound, the “Average inhibition %, biofilms viability” value (A. baumannii NCTC 13423; 50 µM) was 101.8 ± 1.3%, the “Average inhibition %, planktonic cells viability” value (A. baumannii NCTC 13423; 50 µM) was 99.5 ± 0.2% and the inhibition at 10 µM (A. baumannii NCTC 13423; [3]) was 1.6 ± 2.8%. It also gave an inhibition at 10 µM (A. baumannii NCTC 13423; [4]) of 0.8 ± 1.5%, an inhibition at 15 µM (A. baumannii NCTC 13423; [5]) of 53 ± 33.4% and an inhibition at 15 µM (A. baumannii NCTC 13423; [6]) of 96.4 ± 3%. The inhibition at 25 µM (A. baumannii NCTC 13423; [7]) was 84.3 ± 5.9%, the inhibition at 25 µM (A. baumannii NCTC 13423; [8]) was 99 ± 0.9% and the inhibition at 50 µM (A. baumannii NCTC 13423; [9]) was 74.7 ± 11.4%. For the same compound, the inhibition at 50 µM (A. baumannii NCTC 13423; [10]) was 98.8 ± 0.9%, the MIC (A. baumannii NCTC 13423; pre-exposure, Inactive = no activity up to 50 μM, > = some inhibition but no MIC reached, read-out: MIC A. baumannii NCTC 13423) was 15 to 25 µM (≈ 5.38 to 8.96 µg/mL) and the MIC (A. baumannii NCTC 13423; supplementary molecular formula strings sheet, read-out: MIC (A. baumannii)) was 15 to 25 µM (≈ 5.38 to 8.96 µg/mL). For the same compound, the “Average inhibition %, biofilms viability” value (P. aeruginosa ATCC 9027; 50 µM) was 9.8 ± 12.2%, the “Average inhibition %, planktonic cells viability” value (P. aeruginosa ATCC 9027; 50 µM) was 39.9 ± 11% and the “Average inhibition %, biofilms viability” value (P. aeruginosa ATCC 9027; 100 µM) was 10.5 ± 10%. For the same compound, the “Average inhibition %, planktonic cells viability” value (P. aeruginosa ATCC 9027; 100 µM) was 46.1 ± 11.6%, the “Average inhibition %, biofilms viability” value (P. aeruginosa ATCC 9027; 150 µM) was 14.3 ± 12.2% and the “Average inhibition %, planktonic cells viability” value (P. aeruginosa ATCC 9027; 150 µM) was 22.9 ± 1.7%. The “Average inhibition %, biofilms viability” value (P. aeruginosa ATCC 9027; 200 µM) was 15.3 ± 15.9%, the “Average inhibition %, planktonic cells viability” value (P. aeruginosa ATCC 9027; 200 µM) was 33.1 ± 16.1% and the inhibition at 50 µM (P. aeruginosa ATCC 9027; [9]) was 5.2 ± 5.2%. The inhibition at 50 µM (P. aeruginosa ATCC 9027; [10]) was 48 ± 11.1%, the inhibition at 100 µM (P. aeruginosa ATCC 9027; 100 µM, read-out: Average inhibition %, biofilms biomass) was 0% and the inhibition at 100 µM (P. aeruginosa ATCC 9027; 100 µM, read-out: Average inhibition %, planktonic cells turbidity) was 55.5 ± 5.2%. It also gave an inhibition at 150 µM (P. aeruginosa ATCC 9027; 150 µM, read-out: Average inhibition %, biofilms biomass) of 12.1 ± 10.7%, an inhibition at 150 µM (P. aeruginosa ATCC 9027; 150 µM, read-out: Average inhibition %, planktonic cells turbidity) of 42.1 ± 13.6% and an inhibition at 200 µM (P. aeruginosa ATCC 9027; 200 µM, read-out: Average inhibition %, biofilms biomass) of 12.3 ± 19.1%. For the same compound, the inhibition at 200 µM (P. aeruginosa ATCC 9027; 200 µM, read-out: Average inhibition %, planktonic cells turbidity) was 55.3 ± 0.9%, the “MIC P. aeruginosa ATCC 9027” value (P. aeruginosa ATCC 9027; pre-exposure, Inactive = no activity up to 200 μM, > = some inhibition but no MIC reached) was “Inactive” and the MIC (S. aureus ATCC 25923 [1]; lowest concentration with no visible growth (>90% inhibition of turbidity and viability of planktonic cells), 18 h, read-out: MIC S. aureus ATCC 25923) was 10 µM (≈ 3.59 µg/mL). For the same compound, the inhibition at 5 µM (S. aureus ATCC 25923 [1]; 5 µM, read-out: Average inhibition %, biofilms biomass) was 24.2 ± 6.6%, the inhibition at 5 µM (S. aureus ATCC 25923 [1]; 5 µM, read-out: Average inhibition %, planktonic cells turbidity) was 43 ± 17% and the inhibition at 10 µM (S. aureus ATCC 25923 [1]; [3]) was 97.6 ± 1%. It also gave an inhibition at 10 µM (S. aureus ATCC 25923 [1]; [4]) of 99 ± 0.7%, an inhibition at 15 µM (S. aureus ATCC 25923 [1]; [5]) of 97.3 ± 0.6% and an inhibition at 15 µM (S. aureus ATCC 25923 [1]; [6]) of 99.5 ± 0.3%. For the same compound, the inhibition at 25 µM (S. aureus ATCC 25923 [1]; [7]) was 92.3 ± 1.5%, the inhibition at 25 µM (S. aureus ATCC 25923 [1]; [8]) was 99.1 ± 0.3% and the MIC (S. aureus ATCC 25923 [1]; read-out: MIC (S. aureus)) was 10 µM (≈ 3.59 µg/mL). The “Average inhibition %, biofilms viability” value (S. aureus ATCC 25923 [1]; 5 µM) was 26.7 ± 15.1%, the “Average inhibition %, planktonic cells viability” value (S. aureus ATCC 25923 [1]; 5 µM) was 13.9 ± 22.4% and the “Average inhibition %, biofilms viability” value (S. aureus ATCC 25923 [1]; 10 µM) was 99.2 ± 1.4%. The “Average inhibition %, planktonic cells viability” value (S. aureus ATCC 25923 [1]; 10 µM) was 99.4 ± 0%, the “Average inhibition %, biofilms viability” value (S. aureus ATCC 25923 [1]; 15 µM) was 99.5 ± 0.5% and the “Average inhibition %, planktonic cells viability” value (S. aureus ATCC 25923 [1]; 15 µM) was 99.5 ± 0%. For the same compound, the “Average inhibition %, biofilms viability” value (S. aureus ATCC 25923 [1]; 25 µM) was 99.4 ± 0.3%, the “Average inhibition %, planktonic cells viability” value (S. aureus ATCC 25923 [1]; 25 µM) was 99.7 ± 0% and the “Average inhibition %, biofilms viability” value (S. aureus ATCC 25923 [2]; 25 µM) was 13.8 ± 11.7%. For the same compound, the “Average inhibition %, planktonic cells viability” value (S. aureus ATCC 25923 [2]; 25 µM) was 17.5 ± 26.7%, the “Average inhibition %, biofilms viability” value (S. aureus ATCC 25923 [2]; 50 µM) was 29.8 ± 10.2% and the “Average inhibition %, planktonic cells viability” value (S. aureus ATCC 25923 [2]; 50 µM) was 21.5 ± 33.1%. The “Average inhibition %, biofilms viability” value (S. aureus ATCC 25923 [2]; 100 µM) was 48.6 ± 5.2%, the “Average inhibition %, planktonic cells viability” value (S. aureus ATCC 25923 [2]; 100 µM) was 81 ± 8% and the “Average inhibition %, biofilms viability” value (S. aureus ATCC 25923 [2]; 200 µM) was 48.4 ± 12%. For the same compound, the “Average inhibition %, planktonic cells viability” value (S. aureus ATCC 25923 [2]; 200 µM) was 93.2 ± 1.3%, the inhibition at 25 µM (S. aureus ATCC 25923 [2]; [11]) was 25.1 ± 16.4% and the inhibition at 25 µM (S. aureus ATCC 25923 [2]; [12]) was 31.7 ± 26.5%. For the same compound, the inhibition at 50 µM (S. aureus ATCC 25923 [2]; [11]) was 50.2 ± 3.2%, the inhibition at 50 µM (S. aureus ATCC 25923 [2]; [12]) was 26 ± 39.1% and the inhibition at 100 µM (S. aureus ATCC 25923 [2]; [11]) was 61.9 ± 7.7%. The inhibition at 100 µM (S. aureus ATCC 25923 [2]; [12]) was 64.3 ± 18.5%, the inhibition at 200 µM (S. aureus ATCC 25923 [2]; [11]) was 51.5 ± 9.6% and the inhibition at 200 µM (S. aureus ATCC 25923 [2]; [12]) was 73.4 ± 9.8%.
